Data published in patent US11384062B2 (CombiPhos Catalysts, Inc., priority 2017, dated 2022).

Test: Metabolic stability in pooled rat liver microsomes
Details: for CLint scaled at 0.5 µM: pH 7.4, Clint; for half-life at 0.5 µM: pH 7.4, T1/2
Experimental: Buffer solutions were prepared as follows: • a. Buffer A: 0.1 M monobasic potassium phosphate buffer containing 1.0 mM EDTA. • b. Buffer B: 0.1 M dibasic potassium phosphate buffer containing 1.0 mM EDTA. • c. Buffer C: 0.1 M potassium phosphate buffer containing 1.0 mM EDTA was adjusted to pH 7.4 by titrating 700 mL of Buffer B with Buffer A while monitoring with a pH meter. • 2. An NADPH stock solution (6 mM) was prepared by dissolving NADPH into Buffer C. • 3. Spiking solutions were prepared for the reference compound (ketanserin) and the test compounds as follows: • a. A 500 μM spiking solution of the reference compound (ketanserin) was generated by adding 10 μL of a 10 mM stock solution of ketanserin in DMSO into 190 μL acetonitrile. A 1.5 μM spiking solution in microsomes (0.75 mg/mL) was generated by adding 1.5 μL of the 500 μM spiking solution and 18.75 μL of 20 mg/mL rat liver microsomes into 479.75 μL of Buffer C while cooling with ice. • b. […] A 0.75 μM spiking solution in microsomes (0.75 mg/mL) was generated by adding 1.5 μL of the 250 μM spiking solution and 18.75 μL of 20 mg/mL rat liver microsomes into 479.75 μL of Buffer C while cooling with ice. • 4. 30 μL of 1.5 μM spiking solution containing 0.75 mg/mL microsomes solution was dispensed into assay plates designated for different time points (0 min, 5 min, 15 min, 30 min, and 45 min; or 0 min, 15 min, 30 min, 45 min, and 60 min as shown in Tables 1-5 below) while cooling with ice. • 5. For the 0 min time point assay plate, 135 μL of ACN containing IS followed immediately by 15 μL of the 6 mM NADPH stock solution were added to the wells of the 0 min assay plate. • 6. All assay plates other than the 0 min assay plate were pre-incubated at 37° C. for 5 min, and then 15 μL of the 6 mM NADPH stock solution was added to the wells of the assay plates to start the reaction and timing. At the appropriate time (5 min, 15 min, 30 min, 45 min, or 60 min), 135 μL of ACN containing IS was added to the wells of the corresponding assay plates, respectively, to stop the reaction. • 7. After quenching, the plates were shaken in a vibrator (IKA, MTS 2/4) for 10 min (600 rpm/min) and then centrifuged at 5594 g for 15 min (Thermo Multifuge×3R). • 8. After centrifugation, 50 μL of the supernatant from each well was transferred into a 96-well sample plate containing 50 μL of ultrapure water (Millipore, ZMQS50F01) for LC/MS analysis.

[1] = rat liver microsomes, Table 2 (Example 17)
[2] = rat liver microsomes, Table 1 (Example 16)
[3] = rat liver microsomes, Table 3 (Example 18)
[4] = rat liver microsomes, Table 5 (Example 20)
[5] = rat, microsomes, 0 h, 0.5 µM, pH 7.4
[6] = rat, microsomes, 0.25 h, 0.5 µM, pH 7.4
[7] = rat, microsomes, 0.5 h, 0.5 µM, pH 7.4
[8] = rat, microsomes, 0.75 h, 0.5 µM, pH 7.4
[9] = rat, microsomes, 1 h, 0.5 µM, pH 7.4
[10] = rat, microsomes, 0.5 µM, pH 7.4

NC(=O)c1cccc2cn(-c3ccc([C@@H]4CCCNC4)cc3)nc12 (racemic) [racemic niraparib]
Percent Remaining (%) 0 min (rat liver microsomes, 0 min, Table 1 (Example 16)): 100.00% | Percent Remaining (%) 0 min (rat liver microsomes, 0 min, Table 2 (Example 17)): 100% | Percent Remaining (%) 0 min (rat liver microsomes, 0 min, Table 3 (Example 18)): 100.00% | Percent Remaining (%) 0 min (rat liver microsomes, 0 min, Table 5 (Example 20)): 100.00% | Percent Remaining (%) 5 min [1]: 116.67% | Percent Remaining (%) 15 min (rat liver microsomes, 15 min, Table 1 (Example 16)): 89.16% | Percent Remaining (%) 15 min (rat liver microsomes, 15 min, Table 2 (Example 17)): 95.83% | Percent Remaining (%) 15 min (rat liver microsomes, 15 min, Table 3 (Example 18)): 92.47% | Percent Remaining (%) 15 min (rat liver microsomes, 15 min, Table 5 (Example 20)): 77.23% | Percent Remaining (%) 30 min (rat liver microsomes, 30 min, Table 1 (Example 16)): 75.88% | Percent Remaining (%) 30 min (rat liver microsomes, 30 min, Table 2 (Example 17)): 83.18% | Percent Remaining (%) 30 min (rat liver microsomes, 30 min, Table 3 (Example 18)): 65.45% | Percent Remaining (%) 30 min (rat liver microsomes, 30 min, Table 5 (Example 20)): 65.45% | Percent Remaining (%) 45 min (rat liver microsomes, 45 min, Table 1 (Example 16)): 69.11% | Percent Remaining (%) 45 min (rat liver microsomes, 45 min, Table 2 (Example 17)): 81.48% | Percent Remaining (%) 45 min (rat liver microsomes, 45 min, Table 3 (Example 18)): 51.57% | Percent Remaining (%) 45 min (rat liver microsomes, 45 min, Table 5 (Example 20)): 53.43% | Percent Remaining (%) 60 min (rat liver microsomes, 60 min, Table 1 (Example 16)): 60.43% | Percent Remaining (%) 60 min (rat liver microsomes, 60 min, Table 3 (Example 18)): 50.17% | Percent Remaining (%) 60 min (rat liver microsomes, 60 min, Table 5 (Example 20)): 42.23% | Clint [2]: 30.15 mL/min/kg | T1/2 [2]: 1.373 h | Clint [1]: 24.43 mL/min/kg | T1/2 [1]: 1.6945 h | Clint [3]: 46.91 mL/min/kg | T1/2 [3]: 0.8825 h | Clint [4]: 50.00 mL/min/kg | T1/2 [4]: 0.828 h

[2H]c1c([2H])c(C2([2H])C([2H])([2H])NC([2H])([2H])C([2H])([2H])C2([2H])[2H])c([2H])c([2H])c1-n1cc2cccc(C(N)=O)c2n1 (stereo not drawn) [Example 2, 2-(4-(piperidin-3-yl-2,2,3,4,4,5,5,6,6-d9)phenyl-2,3,5,6-d4)-2H-indazole-7-carboxamide]
Percent Remaining (%) 0 min [5]: 100.00% | Percent Remaining (%) 15 min [6]: 93.04% | Percent Remaining (%) 30 min [7]: 80.95% | Percent Remaining (%) 45 min [8]: 75.60% | Percent Remaining (%) 60 min [9]: 69.05% | CLint scaled at 0.5 µM (rat, microsomes): 22.7 mL/min/kg | half-life at 0.5 µM (rat, microsomes): 1.83 h

[2H]C1NC([2H])C([2H])(c2ccc(-n3cc4cccc(C(N)=O)c4n3)cc2)C([2H])C1[2H] (stereo not drawn) [Example 5, 2-(4-(piperidin-3-yl-2,3,4,5,6-d5)phenyl)-2H-indazole-7-carboxamide]
Percent Remaining (%) 0 min [5]: 100.00% | Percent Remaining (%) 15 min [6]: 108.00% | Percent Remaining (%) 30 min [7]: 89.02% | Percent Remaining (%) 45 min [8]: 81.33% | Percent Remaining (%) 60 min [9]: 80.31% | CLint scaled at 0.5 µM (rat, microsomes): 17.2 mL/min/kg | half-life at 0.5 µM (rat, microsomes): 2.4 h

[2H]c1c([2H])c(-n2cc3cccc(C(N)=O)c3n2)c([2H])c([2H])c1C1C([2H])NC([2H])C([2H])C1[2H] (stereo not drawn) [Example 6]
Percent Remaining (%) 0 min [5]: 100% | Percent Remaining (%) 5 min [10]: 112% | Percent Remaining (%) 15 min [6]: 100% | Percent Remaining (%) 30 min [7]: 88.27% | Percent Remaining (%) 45 min [8]: 85.02% | CLint scaled at 0.5 µM (rat, microsomes): 18.8 mL/min/kg | half-life at 0.5 µM (rat, microsomes): 2.2 h

[2H]C1NC([2H])C(c2ccc(-n3cc4cccc(C(N)=O)c4n3)cc2)C([2H])C1[2H] (stereo not drawn) [Example 7, 2-(4-(piperidin-3-yl-2,4,5,6-d4)phenyl)-2H-indazole-7-carboxamide]
Percent Remaining (%) 0 min [5]: 100% | Percent Remaining (%) 5 min [10]: 112.62% | Percent Remaining (%) 15 min [6]: 94.47% | Percent Remaining (%) 30 min [7]: 84.9% | Percent Remaining (%) 45 min [8]: 83.06% | CLint scaled at 0.5 µM (rat, microsomes): 21.1 mL/min/kg | half-life at 0.5 µM (rat, microsomes): 1.96 h

[2H]c1c([2H])c(-n2cc3cccc(C(N)=O)c3n2)c([2H])c([2H])c1C1CCCNC1 (stereo not drawn) [Example 8, 2-(4-(piperidin-3-yl)phenyl-2,3,5,6-d4)-2H-indazole-7-carboxamide]
Percent Remaining (%) 0 min [5]: 100.00% | Percent Remaining (%) 15 min [6]: 91.49% | Percent Remaining (%) 30 min [7]: 79.13% | Percent Remaining (%) 45 min [8]: 80.74% | Percent Remaining (%) 60 min [9]: 56.02% | CLint scaled at 0.5 µM (rat, microsomes): 30.7 mL/min/kg | half-life at 0.5 µM (rat, microsomes): 1.35 h

[2H]c1c([2H])c(C2([2H])CCCNC2[2H])c([2H])c([2H])c1-n1cc2cccc(C(N)=O)c2n1 (stereo not drawn) [Example 9, 2-(4-(piperidin-3-yl-2,3-d2)phenyl-2,3,5,6-d4)-2H-indazole-7-carboxamide]
increase in rat liver microsome metabolic stability (rat, 0.5 µM, pH 7.4): 64% | Percent Remaining (%) 0 min [5]: 100.00% | Percent Remaining (%) 15 min [6]: 98.91% | Percent Remaining (%) 30 min [7]: 83.70% | Percent Remaining (%) 45 min [8]: 79.62% | Percent Remaining (%) 60 min [9]: 75.27% | CLint scaled at 0.5 µM (rat, microsomes): 18.8 mL/min/kg | half-life at 0.5 µM (rat, microsomes): 2.21 h

[2H]c1c([2H])c(-n2nc3c(C(N)=O)cccc3c2[2H])c([2H])c([2H])c1[C@@H]1CCCNC1 [Example 15, (S)-2-(4-(piperidin-3-yl)phenyl-2,3,5,6-d4)-2H-indazole-3-d-7-carboxamide]
Percent Remaining (%) 0 min [5]: 100.00% | Percent Remaining (%) 15 min [6]: 77.88% | Percent Remaining (%) 30 min [7]: 67.35% | Percent Remaining (%) 45 min [8]: 56.14% | Percent Remaining (%) 60 min [9]: 44.60% | CLint scaled at 0.5 µM (rat, microsomes): 46.4 mL/min/kg | half-life at 0.5 µM (rat, microsomes): 0.892 h
